Legend:
[1] = test system: W&Wlis cells; test: Structural modifications of the mitochondrion (pDsRed2-mito, confocal microscopy); format: cell-based, canine; details: linamarin 500 μg/ml from 48 hours; glucose oxidase 5 mEU/ml; combination after 24 hours
Procedure: For the purpose of studying the mitochondrial dynamics occurring as a result of the oxidative stress caused by the activity of the claimed system, W&Wlis cells were stably transfected with the plasmid pdsRed2-mito (Clontech) containing the gene of the one red fluorescent protein carried by a transport signal peptide to the mitochondrion. This allowed viewing the mitochondria of cells treated with linamarin and glucose oxidase by fluorescence microscopy. […] This effect starts to be observed 48 hours after treatment with linamarin (FIG. 1B) and becomes more pronounced after 72 hours, a slight swelling of the fragments (FIG. 1C) being observed.
To study the structural modifications of the mitochondrion during therapy, the W&W and W&Wlis cells were transfected with the plasmid pDsRed2-mito (Clontech, BD Bioscience) containing the gene of a red fluorescent protein which is expressed exclusively in mitochondria. The transfection was performed similarly to the previous section and clones were selected by resistance to neomycin (0.75 and 1.5 mg/ml respectively). The cells from stable expression clones of the protein were seeded in multiwell plates on cover slips (2.5×10^4) and were treated with linamarin (50, 200 or 500 μg/ml) and glucose oxidase (5 mEU/ml). After the suitable incubation time for each experiment (24, 48 or 72 hours) elapsed, the cells were fixed with 4% paraformaldehyde. […]

[2] = test system: W&Wlis cells; test: Analysis of the type of death by flow cytometry (annexin V-FITC/propidium iodide); format: cell-based, canine; set-up: Necrosis / Apoptosis: unit not given here; details: Without GO
Procedure: The annexin V-FITC and propidium iodide assay was performed in parallel by flow cytometry. The pattern of death of the system was analyzed when adding 5 mEU/ml of glucose oxidase and the combined therapy (5 mEU/ml of GO and 500 μg/ml of linamarin) at 48 hours, followed by the control of untreated cells and of the cells incubated with 500 μg/ml of linamarin at 96 hours. Furthermore, another group of cells was subjected to the same conditions except 10 mM of N-acetyl cysteine (NAC) were added. The cells treated with the combined therapy were subsequently studied at 48 hours in the absence and presence of 100 μM of Z-VAD-fmk, followed by the control of treatment of the cells with UV in the same conditions. Finally, the cells treated with the combined therapy were shown at 48 hours in the absence and presence of 300 μM of 1,5-isoquinolinediol (DIQ), observing that the pattern of death is not modified when PARP-1 is inhibited (FIG. 4).
10^5 W&Wlis cells were seeded in test tubes with a screw-on cap and flat side (Nunc). After 24 hours, different amounts of linamarin (50, 200 or 500 μg/ml) and glucose oxidase (5 mEU/ml) were added in the specified cases. In the appropriate assays, the medium was supplemented with N-acetyl cysteine (10 mM), 1,5-isoquinolinediol (300 μM) or Z-VAD-fmk (100 μM). […] They were centrifuged for 5 minutes at 1200 rpm and the cell precipitate was washed first with PBS and then with binding buffer (0.1 M Hepes/NaOH pH 7.4, 1.4 M NaCl and 25 mM CaCl2). The cells were again precipitated and resuspended in 100 μl of binding buffer supplemented with 5 μl of annexin V-FITC and 2.5 μg/ml of propidium iodide. The samples were incubated for 15 minutes in the dark. Data acquisition and analysis was carried out by means of a FACSCalibur flow cytometer (DB Biosciences) with the Cell Quest program.

[3] = 50 μg lin, 96 hours, NAC (10 mM)
[4] = 200 μg lin, 96 hours, NAC (10 mM)
[5] = 500 μg lin, 96 hours, NAC (10 mM)
[6] = Table 4, 50 μg lin, 72 hours, Z-VAD-fmk (100 μM)
[7] = Table 4, 50 μg lin, 72 hours, control (no Z-VAD-fmk)
[8] = Table 4, 200 μg lin, 72 hours, Z-VAD-fmk (100 μM)
[9] = Table 4, 200 μg lin, 72 hours, control (no Z-VAD-fmk)
[10] = Table 4, 500 μg lin, 72 hours, Z-VAD-fmk (100 μM)
[11] = Table 4, 500 μg lin, 72 hours, control (no Z-VAD-fmk)

CC(C)(C#N)O[C@@H]1O[C@H](CO)[C@@H](O)[C@H](O)[C@H]1O [lin, 2-hydroxy-isobutyronitrile-β-D-glucopyranoside]
mitochondrial pattern [1]: dotted pattern
Apoptosis ([2]; 50 μg lin, 48 h): 3.71
Necrosis ([2]; 50 μg lin, 48 h): 2.96
Apoptosis ([2]; 50 μg lin, 72 h): 3.74
Necrosis ([2]; 50 μg lin, 72 h): 5.28
Apoptosis ([2]; 50 μg lin, 96 h): 20.83
Necrosis ([2]; 50 μg lin, 96 h): 11.33
Apoptosis [2, 3]: 6.44
Necrosis [2, 3]: 51.89
Apoptosis ([2]; 200 μg lin, 48 h): 3.84
Necrosis ([2]; 200 μg lin, 48 h): 5.68
Apoptosis ([2]; 200 μg lin, 72 h): 4.62
Necrosis ([2]; 200 μg lin, 72 h): 9.34
Apoptosis ([2]; 200 μg lin, 96 h): 14.31
Necrosis ([2]; 200 μg lin, 96 h): 45.15
Apoptosis [2, 4]: 21.58
Necrosis [2, 4]: 29.18
Apoptosis ([2]; 500 μg lin, 48 h): 5.17
Necrosis ([2]; 500 μg lin, 48 h): 5.54
Apoptosis ([2]; 500 μg lin, 72 h): 6.25
Necrosis ([2]; 500 μg lin, 72 h): 6.91
Apoptosis ([2]; 500 μg lin, 96 h): 18.99
Necrosis ([2]; 500 μg lin, 96 h): 24.98
Apoptosis [2, 5]: 18.53
Necrosis [2, 5]: 19.89
Apoptosis [2, 6]: 3.48
Necrosis [2, 6]: 15.01
Apoptosis [2, 7]: 1.36
Necrosis [2, 7]: 14.72
Apoptosis [2, 8]: 2.56
Necrosis [2, 8]: 13.07
Apoptosis [2, 9]: 3.30
Necrosis [2, 9]: 30.13
Apoptosis [2, 10]: 6.08
Necrosis [2, 10]: 13.24
Apoptosis [2, 11]: 9.02
Necrosis [2, 11]: 18.04

Source: US20100028366A1, “SYNERGISTIC EFFECT BETWEEN A […] AND ANOTHER OXIDATIVE INDUCING SYSTEM FOR TREATING TUMORS” (priority 2005, published 2010)
